Assay results published in the supplement of paper PMC10307832.

What was measured:
Experiment in all cases: relative viability (nuclei count vs DMSO), 5 days (fraction); higher = more cells survive
201T = tested on: 201T
Method in brief: (§1)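 Dosing by pin tool came one day after lung cancer cell lines were seeded in 1536-well plates, using either one drug or a fixed anchor-drug dose plus five library-drug doses (not always all listed) in √10 steps. After 5 days, nuclei were counted on 4× images. Relative viability is treated-well nuclei count divided by vehicle-well nuclei count, and values are medians of duplicate plates.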

BEN = tested on: BEN
Method in brief: as §1

CAL-12T = tested on: CAL-12T
Method in brief: as §1

HCC-44 = tested on: HCC-44
Method in brief: as §1

HCC-827 = tested on: HCC-827
Method in brief: as §1

HOP-62 = tested on: HOP-62
Method in brief: as §1

LCLC-103H = tested on: LCLC-103H
Method in brief: as §1

LCLC-97TM1 = tested on: LCLC-97TM1
Method in brief: as §1

LXF-289 = tested on: LXF-289
Method in brief: as §1

NCI-H1355 = tested on: NCI-H1355
Method in brief: as §1

NCI-H1395 = tested on: NCI-H1395
Method in brief: as §1

NCI-H1437 = tested on: NCI-H1437
Method in brief: as §1

NCI-H1650 = tested on: NCI-H1650
Method in brief: as §1

NCI-H1793 = tested on: NCI-H1793
Method in brief: as §1

NCI-H2023 = tested on: NCI-H2023
Method in brief: as §1

NCI-H2087 = tested on: NCI-H2087
Method in brief: as §1

NCI-H2228 = tested on: NCI-H2228
Method in brief: as §1

NCI-H2405 = tested on: NCI-H2405
Method in brief: as §1

NCI-H3122 = tested on: NCI-H3122
Method in brief: as §1

NCI-H322M = tested on: NCI-H322M
Method in brief: as §1

NCI-H647 = tested on: NCI-H647
Method in brief: as §1

NCI-H727 = tested on: NCI-H727
Method in brief: as §1

RERF-LC-KJ = tested on: RERF-LC-KJ
Method in brief: as §1

SK-LU-1 = tested on: SK-LU-1
Method in brief: as §1

Work on `COc1cc(N2CCC(C(N)=O)CC2)ccc1Nc1nc(N)c(Cl)c(Nc2ccccc2S(=O)(=O)C(C)C)n1` [HG-5-88-01] + CCNC(=O)c1noc(-c2cc(C(C)C)c(O)cc2O)c1-c1ccc(CN2CCOCC2)cc1 [Luminespib] (partner 0.01 µM) yielded a relative viability (201T; first compound 0.04 µM) of 1.01, a relative viability (201T; first compound 0.1265 µM) of 1.04 and a relative viability (201T; first compound 0.4 µM) of 1.08. For the same compound, the relative viability (201T; first compound 1.265 µM) was 1.03, the relative viability (201T; first compound 4 µM) was 1.11 and the relative viability (BEN; first compound 0.04 µM) was 0.337. The relative viability (BEN; first compound 0.1265 µM) was 0.412, the relative viability (BEN; first compound 0.4 µM) was 0.43 and the relative viability (BEN; first compound 1.265 µM) was 0.465. For the same compound, the relative viability (BEN; first compound 4 µM) was 0.234, the relative viability (CAL-12T; first compound 0.04 µM) was 0.583 and the relative viability (CAL-12T; first compound 0.1265 µM) was 1.02. The relative viability (CAL-12T; first compound 0.4 µM) was 0.36, the relative viability (CAL-12T; first compound 1.265 µM) was 0.392 and the relative viability (CAL-12T; first compound 4 µM) was 0.255. For the same compound, the relative viability (HCC-44; first compound 0.04 µM) was 1.01, the relative viability (HCC-44; first compound 0.1265 µM) was 0.988 and the relative viability (HCC-44; first compound 0.4 µM) was 0.915. It also gave a relative viability (HCC-44; first compound 1.265 µM) of 0.366, a relative viability (HCC-44; first compound 4 µM) of 0.783 and a relative viability (HCC-827; first compound 0.04 µM) of 0.767. It also gave a relative viability (HCC-827; first compound 0.1265 µM) of 0.86, a relative viability (HCC-827; first compound 0.4 µM) of 0.575 and a relative viability (HCC-827; first compound 1.265 µM) of 0.581. It also gave a relative viability (HCC-827; first compound 4 µM) of 0.361, a relative viability (HOP-62; first compound 0.04 µM) of 0.889 and a relative viability (HOP-62; first compound 0.1265 µM) of 0.932. The relative viability (HOP-62; first compound 0.4 µM) was 0.878, the relative viability (HOP-62; first compound 1.265 µM) was 0.964 and the relative viability (HOP-62; first compound 4 µM) was 1.01. For the same compound, the relative viability (LCLC-103H; first compound 0.04 µM) was 1.08, the relative viability (LCLC-103H; first compound 0.1265 µM) was 1.01 and the relative viability (LCLC-103H; first compound 0.4 µM) was 0.888. It also gave a relative viability (LCLC-103H; first compound 1.265 µM) of 0.894, a relative viability (LCLC-103H; first compound 4 µM) of 0.879 and a relative viability (LCLC-97TM1; first compound 0.04 µM) of 0.864. The relative viability (LCLC-97TM1; first compound 0.1265 µM) was 0.647, the relative viability (LCLC-97TM1; first compound 0.4 µM) was 0.713 and the relative viability (LCLC-97TM1; first compound 1.265 µM) was 0.511. It also gave a relative viability (LCLC-97TM1; first compound 4 µM) of 0.301, a relative viability (LXF-289; first compound 0.04 µM) of 0.703 and a relative viability (LXF-289; first compound 0.1265 µM) of 0.733. The relative viability (LXF-289; first compound 0.4 µM) was 0.698, the relative viability (LXF-289; first compound 1.265 µM) was 0.721 and the relative viability (LXF-289; first compound 4 µM) was 0.897. It also gave a relative viability (NCI-H1355; first compound 0.04 µM) of 0.663, a relative viability (NCI-H1355; first compound 0.1265 µM) of 0.753 and a relative viability (NCI-H1355; first compound 0.4 µM) of 0.703. The relative viability (NCI-H1355; first compound 1.265 µM) was 0.617, the relative viability (NCI-H1355; first compound 4 µM) was 0.809 and the relative viability (NCI-H1395; first compound 0.04 µM) was 0.723. The relative viability (NCI-H1395; first compound 0.1265 µM) was 0.611, the relative viability (NCI-H1395; first compound 0.4 µM) was 0.669 and the relative viability (NCI-H1395; first compound 1.265 µM) was 0.532. It also gave a relative viability (NCI-H1395; first compound 4 µM) of 0.989, a relative viability (NCI-H1437; first compound 0.04 µM) of 1.09 and a relative viability (NCI-H1437; first compound 0.1265 µM) of 1.1. It also gave a relative viability (NCI-H1437; first compound 0.4 µM) of 1.07, a relative viability (NCI-H1437; first compound 1.265 µM) of 0.998 and a relative viability (NCI-H1437; first compound 4 µM) of 1.23. For the same compound, the relative viability (NCI-H1650; first compound 0.04 µM) was 0.156, the relative viability (NCI-H1650; first compound 0.1265 µM) was 0.184 and the relative viability (NCI-H1650; first compound 0.4 µM) was 0.172. The relative viability (NCI-H1650; first compound 1.265 µM) was 0.197, the relative viability (NCI-H1650; first compound 4 µM) was 0.204 and the relative viability (NCI-H1793; first compound 0.1265 µM) was 0.168. The relative viability (NCI-H1793; first compound 0.4 µM) was 0.198, the relative viability (NCI-H1793; first compound 4 µM) was 0.272 and the relative viability (NCI-H2023; first compound 0.04 µM) was 0.397. The relative viability (NCI-H2023; first compound 0.1265 µM) was 0.673, the relative viability (NCI-H2023; first compound 0.4 µM) was 0.671 and the relative viability (NCI-H2023; first compound 1.265 µM) was 0.438. The relative viability (NCI-H2023; first compound 4 µM) was 0.267, the relative viability (NCI-H2087; first compound 0.04 µM) was 0.173 and the relative viability (NCI-H2087; first compound 0.1265 µM) was 0.228. For the same compound, the relative viability (NCI-H2087; first compound 0.4 µM) was 0.173, the relative viability (NCI-H2087; first compound 1.265 µM) was 0.19 and the relative viability (NCI-H2087; first compound 4 µM) was 0.204. The relative viability (NCI-H2228; first compound 0.04 µM) was 0.117, the relative viability (NCI-H2228; first compound 0.1265 µM) was 0.149 and the relative viability (NCI-H2228; first compound 0.4 µM) was 0.122. The relative viability (NCI-H2228; first compound 1.265 µM) was 0.109, the relative viability (NCI-H2228; first compound 4 µM) was 0.116 and the relative viability (NCI-H2405; first compound 0.04 µM) was 0.872. For the same compound, the relative viability (NCI-H2405; first compound 0.1265 µM) was 0.692, the relative viability (NCI-H2405; first compound 0.4 µM) was 0.594 and the relative viability (NCI-H2405; first compound 1.265 µM) was 0.457. For the same compound, the relative viability (NCI-H2405; first compound 4 µM) was 0.673, the relative viability (NCI-H3122; first compound 0.04 µM) was 0.0748 and the relative viability (NCI-H3122; first compound 0.1265 µM) was 0.11. For the same compound, the relative viability (NCI-H3122; first compound 0.4 µM) was 0.106, the relative viability (NCI-H3122; first compound 1.265 µM) was 0.115 and the relative viability (NCI-H3122; first compound 4 µM) was 0.0981. For the same compound, the relative viability (NCI-H322M; first compound 0.04 µM) was 0.782, the relative viability (NCI-H322M; first compound 0.1265 µM) was 0.835 and the relative viability (NCI-H322M; first compound 0.4 µM) was 0.555. It also gave a relative viability (NCI-H322M; first compound 4 µM) of 0.627, a relative viability (NCI-H647; first compound 0.04 µM) of 0.25 and a relative viability (NCI-H647; first compound 0.1265 µM) of 0.363. It also gave a relative viability (NCI-H647; first compound 0.4 µM) of 0.13, a relative viability (NCI-H647; first compound 1.265 µM) of 0.148 and a relative viability (NCI-H647; first compound 4 µM) of 0.248. For the same compound, the relative viability (NCI-H727; first compound 0.04 µM) was 0.566, the relative viability (NCI-H727; first compound 0.1265 µM) was 0.344 and the relative viability (NCI-H727; first compound 0.4 µM) was 0.337. The relative viability (NCI-H727; first compound 1.265 µM) was 0.313, the relative viability (NCI-H727; first compound 4 µM) was 0.31 and the relative viability (RERF-LC-KJ; first compound 0.04 µM) was 1.4. It also gave a relative viability (RERF-LC-KJ; first compound 0.1265 µM) of 1.33, a relative viability (RERF-LC-KJ; first compound 0.4 µM) of 1.25 and a relative viability (RERF-LC-KJ; first compound 1.265 µM) of 1.23. For the same compound, the relative viability (RERF-LC-KJ; first compound 4 µM) was 0.963, the relative viability (SK-LU-1; first compound 0.04 µM) was 0.209 and the relative viability (SK-LU-1; first compound 0.1265 µM) was 0.2. The relative viability (SK-LU-1; first compound 0.4 µM) was 0.196, the relative viability (SK-LU-1; first compound 1.265 µM) was 0.229 and the relative viability (SK-LU-1; first compound 4 µM) was 0.199.
